Assay results taken from US20250154169A1, “COMPOUNDS AND METHODS FOR MODULATING SPLICING” (REMIX THERAPEUTICS INC., priority 2021, published 2025).
Where two headings read alike, the source gives them in different places.

How the values were obtained:
Assay type in all cases: cell-based, human
[1] = test system: Target C mRNA; test: Splicing RT-qPCR gene panel, Target C canonical junction (CJ) mRNA; settings: Homo sapiens, Tables 4A/4B, read-out: Target C (IC50, decrease in CJ mRNA, gene panel)
Procedure, shortened: (§1)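 Canonical-junction mRNA levels were quantified by RT-qPCR in lysates, using ΔΔCt against a housekeeping gene (GAPDH, GUSB or PPIA) and DMSO wells, expressed as percentage response. Cells (A673 or K562) had been exposed for 24 h at 37° C. to 11 three-fold compound concentrations up to 10 uM, DMSO ≤0.25%.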

[2] = test system: SMN2 mRNA; test: Splicing RT-qPCR gene panel, SMN2 canonical junction (CJ) mRNA; settings: Homo sapiens, Tables 4A/4B, read-out: SMN2 (IC50, decrease in CJ mRNA, gene panel)
Procedure, shortened: as §1

[3] = test system: HTT mRNA; test: Splicing RT-qPCR gene panel, HTT canonical junction (CJ) mRNA; settings: Homo sapiens, Tables 4A/4B, read-out: HTT (IC50, decrease in CJ mRNA, gene panel)
Procedure, shortened: as §1

[4] = test system: MYB mRNA; test: Splicing RT-qPCR assay, MYB canonical (CJ) and alternative (AJ) junction mRNA
Procedure, shortened: (§2)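 Canonical (CJ) and alternative-exon (AJ) junction mRNAs quantified by one-step RT-qPCR in cell lysates, normalized to housekeeping PPIA for A673 and GAPDH or GUSB for K562. Cells were exposed 24 h at 37 °C to 11-point 3-fold compound series from 10 uM final, with DMSO at or below 0.25%.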

[5] = test system: HTT mRNA; test: Splicing RT-qPCR assay, HTT canonical (CJ) and alternative (AJ) junction mRNA
Procedure, shortened: as §2

[6] = Homo sapiens, 24 h, A673 or K562 cells, 24 hours compound treatment, RT-qPCR, read-out: MYB AJ (AC50, increase in alternative junction mRNA)
[7] = Homo sapiens, 24 h, A673 or K562 cells, 24 hours compound treatment, RT-qPCR, read-out: MYB CJ (IC50, decrease in canonical junction mRNA)
[8] = Homo sapiens, Tables 4A/4B, canonical junction qPCR panel, read-out: MYB (IC50, decrease in CJ mRNA, gene panel)
[9] = Homo sapiens, 24 h, A673 or K562 cells, 24 hours compound treatment, read-out: HTT CJ (IC50, decrease in canonical junction mRNA)
[10] = Homo sapiens, A673 or K562 cells, 24 hours compound treatment, read-out: HTT AJ (AC50, increase in alternative junction mRNA)

SMILES | IC50 [1] [nM] | IC50 [2] [nM] | IC50 [3] [nM] | AC50 [4, 6] [nM] | IC50 [4, 7] [nM] | IC50 [4, 8] [nM] | IC50 [5, 9] [nM] | AC50 [5, 10] [nM] | AC50 ([4]; A673 or K562 cells, 24 hours compound treatment, RT-qPCR, read-out: MYB AJ (AC50, increase in alternative junction mRNA)) [nM] | IC50 ([4]; A673 or K562 cells, 24 hours compound treatment, RT-qPCR, read-out: MYB CJ (IC50, decrease in canonical junction mRNA)) [nM] | AC50 ([5]; A673 or K562 cells, 24 hours compound treatment, read-out: HTT AJ (AC50, increase in alternative junction mRNA)) [nM] | IC50 ([5]; A673 or K562 cells, 24 hours compound treatment, read-out: HTT CJ (IC50, decrease in canonical junction mRNA)) [nM] | IC50 ([4]; Homo sapiens, Table 3B, canonical junction mRNA, RT-qPCR, read-out: MYB CJ (IC50, decrease in CJ mRNA)) [nM] | AC50 ([4]; Homo sapiens, Table 3B, alternative junction mRNA, RT-qPCR, read-out: MYB AJ (AC50, increase in AJ mRNA)) [nM] | AC50 ([5]; Homo sapiens, Table 3B, alternative junction mRNA, read-out: HTT AJ (AC50, increase in AJ mRNA)) [nM] | IC50 ([5]; Homo sapiens, Table 3B, canonical junction mRNA, read-out: HTT CJ (IC50, decrease in CJ mRNA)) [nM]
CCn1cc2c(C3OCC(N)CO3)ccc(C(=O)Nc3cc(F)c4nc(C)cn4c3)c2n1 (stereo not shown) [Compound 455, 4-(5-amino-1,3-dioxan-2-yl)-2-ethyl-N-{8-fluoro-2-methylimidazo[1,2-a]pyridin-6-yl}indazole-7-carboxamide] | 1000 to 10000 | 100 to 1000 | 1000 to 10000 | > 10000 | > 10000 | 100 to 1000 | > 10000 | > 10000 |  |  |  |  |  |  |  | 
COc1c(NC(=O)c2ccc(N3CCNCC3)c3cn(C)nc23)cc(C)c2nn(C)cc12 [Compound 456] | > 10000 | > 10000 | > 10000 | 1000 to 10000 | > 10000 | > 10000 | > 10000 | > 10000 |  |  |  |  |  |  |  | 
Cc1cn2c(n1)CCC(NC(=O)c1ccc(N3CCNCC3)c3cn(C)nc13)C2 (stereo not shown) [Compound 457, 2-methyl-N-{2-methyl-5H,6H,7H,8H-imidazo[1,2-a]pyridin-6-yl}-4-(piperazin-1-yl) indazole-7-carboxamide] | > 10000 | > 10000 | > 10000 | > 10000 | > 10000 | > 10000 | > 10000 | > 10000 |  |  |  |  |  |  |  | 
Cc1nc2c(F)cc(NC(=O)c3ccc(N4CCNCC4)c4cn(C)nc34)cn2c1C [Compound 458, N-{8-fluoro-2,3-dimethylimidazo[1,2-a]pyridin-6-yl}-2-methyl-4-(piperazin-1-yl) indazole-7-carboxamide] | > 10000 | > 10000 | > 10000 | < 100 | < 100 | > 10000 | < 100 | 100 to 1000 |  |  |  |  |  |  |  | 
CCNC1CCN(c2ccc(C(=O)Nc3cn4cc(C)nc4c(F)c3OC)c3nn(C)cc23)CC1 [Compound 459, 4-[4-(ethylamino)piperidin-1-yl]-N-{8-fluoro-7-methoxy-2-methylimidazo [1,2-a]pyridin-6-yl}-2-methylindazole-7-carboxamide] | 1000 to 10000 | < 100 | < 100 | < 100 | < 100 | < 100 | 100 to 1000 | 100 to 1000 |  |  |  |  |  |  |  | 
CCNC1CCN(c2cc(F)c(C(=O)Nc3cc(F)c4nc(C)cn4c3)c3nn(C)cc23)CC1 [Compound 460] | 100 to 1000 | < 100 | 100 to 1000 | < 100 | < 100 | < 100 | < 100 | 100 to 1000 |  |  |  |  |  |  |  | 
Cc1cn2cc(NC(=O)c3ccc(N4CC[C@@H](NC5(CF)CC5)C4)c4cn(C)nc34)cc(F)c2n1 [Compound 461, N-{8-fluoro-2-methylimidazo[1,2-a]pyridin-6-yl}-4-[(3R)-3-{[1-(fluoromethyl)cyclopropyl]amino}pyrrolidin-1-yl]-2-methylindazole-7-carboxamide] | > 10000 | < 100 | 1000 to 10000 | 100 to 1000 | < 100 | < 100 | 1000 to 10000 | > 10000 |  |  |  |  |  |  |  | 
Cc1nc2c(F)cc(NC(=O)c3ccc(N4CCNCC4)c4cn(C)nc34)cn2n1 [Compound 462, N-{8-fluoro-2-methyl-[1,2,4]triazolo[1,5-a]pyridin-6-yl}-2-methyl-4-(piperazin-1-yl) indazole-7-carboxamide] | > 10000 | < 100 | 100 to 1000 | < 100 | < 100 | < 100 | 100 to 1000 | 100 to 1000 |  |  |  |  |  |  |  | 
CCn1cc2c(N3CC[C@@H](NC)C3)ccc(C(=O)Nc3cc(F)c4nc(C)cn4c3)c2n1 [Compound 469, (R)-2-ethyl-N-(8-fluoro-2-methylimidazo[1,2-a]pyridin-6-yl)-4-(3-(methylamino)pyrrolidin-1-yl)-2H-indazole-7-carboxamide] | > 10000 | > 10000 | > 10000 |  |  | > 10000 |  |  | > 10000 | > 10000 | > 10000 | > 10000 |  |  |  | 
Cc1nnc2n1CC(NC(=O)c1ccc(N3CCNCC3)c3cn(C)nc13)CC2 (stereo not shown) [Compound 470, 2-methyl-N-{3-methyl-5H,6H,7H,8H-[1,2,4]triazolo[4,3-a]pyridin-6-yl}-4-(piperazin-1-yl) indazole-7-carboxamide] | > 10000 | > 10000 | > 10000 | > 10000 | > 10000 | > 10000 | > 10000 | > 10000 |  |  |  |  |  |  |  | 
CCn1cc2c(N3CC[C@H](N(C)C)C3)cc(F)c(C(=O)Nc3cc(F)c4nc(C)cn4c3)c2n1 [Compound 472, 4-[(3S)-3-(dimethylamino)pyrrolidin-1-yl]-2-ethyl-6-fluoro-N-{8-fluoro-2-methylimidazo[1,2-a]pyridin-6-yl}indazole-7-carboxamide] | > 10000 | < 100 | > 10000 | < 100 | < 100 | < 100 | > 10000 | 1000 to 10000 |  |  |  |  |  |  |  | 
CCn1cc2c(N3CC[C@@H](N(C)C)C3)cc(F)c(C(=O)Nc3cc(F)c4nc(C)cn4c3)c2n1 [Compound 473, 4-[(3R)-3-(dimethylamino)pyrrolidin-1-yl]-2-ethyl-6-fluoro-N-{8-fluoro-2-methylimidazo[1,2-a]pyridin-6-yl}indazole-7-carboxamide; bis(trifluoroacetic acid)] | > 10000 | < 100 | 1000 to 10000 | < 100 | < 100 | < 100 | 1000 to 10000 | 1000 to 10000 |  |  |  |  |  |  |  | 
CCn1cc2c(N3CCNCC3)cc(F)c(C(=O)Nc3cc(F)c4nc(C)cn4c3)c2n1 [Compound 474, 2-ethyl-6-fluoro-N-{8-fluoro-2-methylimidazo[1,2-a]pyridin-6-yl}-4-(piperazin-1-yl) indazole-7-carboxamide] | 1000 to 10000 | < 100 | 100 to 1000 | < 100 | < 100 | < 100 | < 100 | 100 to 1000 |  |  |  |  |  |  |  | 
CCn1cc2c(N3C[C@@H](C)N[C@@H](C)C3)cc(F)c(C(=O)Nc3cc(F)c4nc(C)cn4c3)c2n1 [Compound 475, 4-[(3R,5S)-3,5-dimethylpiperazin-1-yl]-2-ethyl-6-fluoro-N-{8-fluoro-2-methylimidazo[1,2-a]pyridin-6-yl}indazole-7-carboxamide; trifluoroacetic acid] | 1000 to 10000 | < 100 | 100 to 1000 | < 100 | < 100 | < 100 | 100 to 1000 | 100 to 1000 |  |  |  |  |  |  |  | 
CCn1cc2c(NC3CCNCC3)ccc(C(=O)Nc3cc(F)c4nc(C)cn4c3)c2n1 [Compound 476, 2-ethyl-N-{8-fluoro-2-methylimidazo[1,2-a]pyridin-6-yl}-4-(piperidin-4-ylamino) indazole-7-carboxamide] | 1000 to 10000 | 100 to 1000 | 100 to 1000 | 1000 to 10000 | 1000 to 10000 | 1000 to 10000 | 100 to 1000 | 1000 to 10000 |  |  |  |  |  |  |  | 
CCn1cc2c(N3CC4(CNC4)C3)ccc(C(=O)Nc3cc(F)c4nc(C)cn4c3)c2n1 [Compound 477, 4-{2,6-diazaspiro[3.3]heptan-2-yl}-2-ethyl-N-{8-fluoro-2-methylimidazo[1,2-a]pyridin-6-yl}indazole-7-carboxamide] | > 10000 | 100 to 1000 | 1000 to 10000 | 100 to 1000 | 100 to 1000 | 100 to 1000 | 1000 to 10000 | > 10000 |  |  |  |  |  |  |  | 
Cc1cn2cc(NC(=O)c3ccc(N4CCNCC4)n4cc(C)nc34)cc(F)c2n1 [Compound 908] | 1000 to 10000 | < 100 | 100 to 1000 |  |  | < 100 |  |  |  |  |  |  | < 100 | < 100 | 100 to 1000 | 100 to 1000
